# Key:
# Assay in all cases: KINOMEscan
# Assay type in all cases: binding
# Conditions in all cases: read-out: % control activity remaining
# [1] = target: T1, RPS6KA4(Kin.Dom.2-C-terminal) (Homo sapiens, UniProt O75676)
# T1 construct: RPS6KA4(Kin.Dom.2-C-terminal); purchased Eurofins DiscoverX KINOMEscan
# CSNK1A1L = target: T2, CSNK1A1L (Homo sapiens, UniProt Q8N752)
# T2 construct: purchased Eurofins DiscoverX KINOMEscan
# T2 sequence (Q8N752 1-337): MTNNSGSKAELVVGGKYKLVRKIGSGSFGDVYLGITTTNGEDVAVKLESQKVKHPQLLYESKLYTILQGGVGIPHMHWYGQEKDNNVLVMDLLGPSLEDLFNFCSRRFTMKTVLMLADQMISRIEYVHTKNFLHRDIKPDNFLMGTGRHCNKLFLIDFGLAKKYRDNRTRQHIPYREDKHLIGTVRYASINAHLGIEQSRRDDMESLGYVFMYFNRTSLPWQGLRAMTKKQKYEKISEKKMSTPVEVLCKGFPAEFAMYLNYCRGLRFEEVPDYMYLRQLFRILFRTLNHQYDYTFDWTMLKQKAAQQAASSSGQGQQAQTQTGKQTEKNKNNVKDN
# [2] = target: T3, RPS6KA5(Kin.Dom.2-C-terminal) (Homo sapiens, UniProt O75582)
# T3 construct: RPS6KA5(Kin.Dom.2-C-terminal); purchased Eurofins DiscoverX KINOMEscan
# T3 sequence (O75582 426-687 limits assumed): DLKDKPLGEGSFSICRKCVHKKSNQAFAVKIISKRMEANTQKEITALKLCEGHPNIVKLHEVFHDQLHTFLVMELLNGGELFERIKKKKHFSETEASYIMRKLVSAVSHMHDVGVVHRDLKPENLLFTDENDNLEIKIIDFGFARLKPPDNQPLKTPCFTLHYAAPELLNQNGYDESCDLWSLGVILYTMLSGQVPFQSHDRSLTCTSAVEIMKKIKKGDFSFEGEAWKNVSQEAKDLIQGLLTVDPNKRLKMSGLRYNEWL
# PLK1 = target: T4, PLK1 (Homo sapiens, UniProt P53350)
# T4 construct: purchased Eurofins DiscoverX KINOMEscan
# T4 sequence (P53350 whole entry): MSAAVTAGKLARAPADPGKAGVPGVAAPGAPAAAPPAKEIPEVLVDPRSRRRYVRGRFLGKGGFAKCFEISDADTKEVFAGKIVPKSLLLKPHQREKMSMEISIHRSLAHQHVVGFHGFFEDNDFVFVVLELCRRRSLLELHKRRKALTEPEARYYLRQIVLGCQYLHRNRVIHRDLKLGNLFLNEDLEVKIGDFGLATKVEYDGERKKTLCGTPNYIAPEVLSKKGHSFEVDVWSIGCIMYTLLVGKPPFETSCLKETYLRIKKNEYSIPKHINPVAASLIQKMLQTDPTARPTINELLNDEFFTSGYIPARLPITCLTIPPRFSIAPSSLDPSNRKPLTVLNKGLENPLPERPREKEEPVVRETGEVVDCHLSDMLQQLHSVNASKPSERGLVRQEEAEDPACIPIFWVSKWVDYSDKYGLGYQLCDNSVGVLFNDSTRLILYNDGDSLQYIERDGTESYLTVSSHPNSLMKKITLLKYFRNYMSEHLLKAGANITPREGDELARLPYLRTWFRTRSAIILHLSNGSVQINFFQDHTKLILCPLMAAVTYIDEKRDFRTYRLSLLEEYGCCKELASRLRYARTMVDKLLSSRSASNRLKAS
# MUSK = target: T5, MUSK (Homo sapiens, UniProt O15146)
# T5 construct: purchased Eurofins DiscoverX KINOMEscan
# T5 sequence (O15146 24-869): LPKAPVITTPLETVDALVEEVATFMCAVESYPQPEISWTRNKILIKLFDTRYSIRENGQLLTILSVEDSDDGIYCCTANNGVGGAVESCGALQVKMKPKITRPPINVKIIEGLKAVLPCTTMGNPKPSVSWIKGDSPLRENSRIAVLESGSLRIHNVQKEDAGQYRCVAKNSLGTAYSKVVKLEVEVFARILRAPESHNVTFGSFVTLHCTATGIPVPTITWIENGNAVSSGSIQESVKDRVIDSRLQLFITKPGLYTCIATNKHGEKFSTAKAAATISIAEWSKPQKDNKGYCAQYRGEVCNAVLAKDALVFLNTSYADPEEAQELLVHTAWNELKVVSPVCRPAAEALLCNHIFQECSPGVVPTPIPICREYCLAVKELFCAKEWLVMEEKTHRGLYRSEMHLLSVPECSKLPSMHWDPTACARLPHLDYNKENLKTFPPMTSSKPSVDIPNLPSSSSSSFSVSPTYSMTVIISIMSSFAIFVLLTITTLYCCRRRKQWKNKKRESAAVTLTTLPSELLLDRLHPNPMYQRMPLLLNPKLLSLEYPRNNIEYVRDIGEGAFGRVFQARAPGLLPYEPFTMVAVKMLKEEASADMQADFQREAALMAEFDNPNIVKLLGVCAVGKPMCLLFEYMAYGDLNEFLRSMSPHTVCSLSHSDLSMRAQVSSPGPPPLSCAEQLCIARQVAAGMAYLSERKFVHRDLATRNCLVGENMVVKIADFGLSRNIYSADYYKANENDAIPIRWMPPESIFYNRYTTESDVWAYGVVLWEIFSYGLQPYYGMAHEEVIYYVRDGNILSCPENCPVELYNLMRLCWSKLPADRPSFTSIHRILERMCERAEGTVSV
# ULK2 = target: T6, ULK2 (Homo sapiens, UniProt Q8IYT8)
# T6 construct: purchased Eurofins DiscoverX KINOMEscan
# T6 sequence (Q8IYT8 1-1036): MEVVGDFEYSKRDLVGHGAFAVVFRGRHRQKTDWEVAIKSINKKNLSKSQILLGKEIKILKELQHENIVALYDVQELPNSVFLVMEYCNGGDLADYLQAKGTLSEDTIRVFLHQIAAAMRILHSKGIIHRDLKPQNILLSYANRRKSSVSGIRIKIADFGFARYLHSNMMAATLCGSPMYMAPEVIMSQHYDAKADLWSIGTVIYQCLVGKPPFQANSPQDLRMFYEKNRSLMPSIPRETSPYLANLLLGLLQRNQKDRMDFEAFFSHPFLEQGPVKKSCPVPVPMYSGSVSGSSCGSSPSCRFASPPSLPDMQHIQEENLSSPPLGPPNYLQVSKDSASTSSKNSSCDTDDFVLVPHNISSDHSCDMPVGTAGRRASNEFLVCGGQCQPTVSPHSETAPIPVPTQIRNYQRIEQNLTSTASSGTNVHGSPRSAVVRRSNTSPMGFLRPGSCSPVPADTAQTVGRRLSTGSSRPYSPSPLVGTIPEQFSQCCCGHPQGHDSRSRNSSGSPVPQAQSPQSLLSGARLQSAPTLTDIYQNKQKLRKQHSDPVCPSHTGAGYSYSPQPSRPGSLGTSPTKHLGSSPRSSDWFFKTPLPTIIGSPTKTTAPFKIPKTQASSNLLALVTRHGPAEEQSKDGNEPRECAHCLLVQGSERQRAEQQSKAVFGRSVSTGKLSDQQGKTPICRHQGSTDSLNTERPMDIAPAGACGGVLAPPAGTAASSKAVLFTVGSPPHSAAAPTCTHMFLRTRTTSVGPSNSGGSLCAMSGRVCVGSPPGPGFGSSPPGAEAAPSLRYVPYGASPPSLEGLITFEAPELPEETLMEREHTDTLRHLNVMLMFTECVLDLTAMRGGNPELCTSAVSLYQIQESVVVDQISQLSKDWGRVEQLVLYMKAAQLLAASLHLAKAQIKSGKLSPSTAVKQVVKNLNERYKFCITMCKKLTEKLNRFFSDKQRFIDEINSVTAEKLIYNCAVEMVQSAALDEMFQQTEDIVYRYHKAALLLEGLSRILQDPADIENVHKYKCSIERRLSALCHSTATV
# T1 sequence (O75676 411-674 limits assumed): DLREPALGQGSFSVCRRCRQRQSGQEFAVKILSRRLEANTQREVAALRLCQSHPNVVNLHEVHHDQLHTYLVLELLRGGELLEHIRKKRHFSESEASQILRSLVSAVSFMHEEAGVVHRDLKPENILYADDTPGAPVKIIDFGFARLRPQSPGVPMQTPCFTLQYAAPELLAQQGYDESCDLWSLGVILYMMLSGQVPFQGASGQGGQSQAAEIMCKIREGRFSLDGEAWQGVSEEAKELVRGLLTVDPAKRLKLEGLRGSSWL
SMILES,remaining binding at 1 µM [1] [%],remaining binding at 1 µM (CSNK1A1L) [%],remaining binding at 1 µM [2] [%],remaining binding at 1 µM (PLK1) [%],remaining binding at 1 µM (MUSK) [%],remaining binding at 1 µM (ULK2) [%]
"CN1CCC(CNc2cc(Cl)nn3c(-c4cc5nc(Nc6ccccc6)[nH]c5cc4F)cnc23)CC1 [compound 31, 6-Chloro-3-(6-fluoro-2-(phenylamino)-1H-benzo[d]imidazol-5-yl)-N-((1-methylpiperidin-4-yl)methyl)imidazo[1,2-b]pyridazin-8-amine]",86,100,99,96,40,83
O=C(CN1CCOCC1)N[C@H]1CC[C@H](Nc2cc(Cl)nn3c(-c4ccc5[nH]ncc5c4)cnc23)CC1 [compound 26],81,88,80,90,42,94
"Clc1cc(NCC2CC2)c2ncc(-c3ccc4[nH]ncc4c3)n2n1 [compound 2, 6-Chloro-N-(cyclopropylmethyl)-3-(1H-indazol-5-yl)imidazo[1,2-b]pyridazin-8-amine]",87,100,93,97,72,98

# — paper PMC6437697 (Journal of Medicinal Chemistry, 2019)
